Results taken from BindingDB's records for doi:10.1021/jm300491y (San Francisco State University, 2012).

Assay: Inhibition of UT-B in wild type CD1 mouse erythrocyte assessed as hemolysis after 10 mins

| SMILES | IC50 [µM] |
| --- | --- |
| CC(C)c1ccc(S(=O)(=O)c2nnn3c2nc(NCc2cccc4ccccc24)c2sccc23)cc1 | > 2.5 |
| Cc1ccc(S(=O)(=O)c2nnn3c2nc(N2CCCCC2)c2sccc23)cc1C | > 25 |
| CCc1ccc(S(=O)(=O)c2nnn3c2nc(N2CCOCC2)c2sccc23)cc1 | 5.6 |
